This is an account of results in article PMC3292421 (International Journal of Nanomedicine, 2012).

For data set [1], the system named is P-glycoprotein. The following applies: cited from earlier work.
For data set [2] the following is noted: 25°C.
For data set [3] the following is noted: long-term animal studies; cited from earlier work.

Read-outs that look alike come from different tables or passages of the source.

On to `O=C1Nc2ccccc2/C1=C1/Nc2ccccc2C1=O` [indirubin], for which the “Influence of P-glycoprotein on transport through the rat intestine membrane” value in data set [1] is reported as “not influenced”. Also, the Solubility in data set [2] (in Cremophor EL (surfactant)) stood at 1.305 µmol/g; in data set [2] (in Cremophor RH40 (surfactant)), 0.631 µmol/g; in data set [2] (in GTCC (caprylic/capric triglyceride, oil)), 0.154 µmol/g; in data set [2] (in IPM (isopropyl myristate, oil)) it was 0.087 µmol/g; in data set [2] (in Labrafac Lipophile WL1349 (oil)), 0.159 µmol/g; in data set [2] (in Labrafil M2125CS (oil)) it was 0.338 µmol/g. In addition, the Solubility in data set [2] (in Maisine 35-1 (oil)) was 0.755 µmol/g; in data set [2] (in Olive oil (oil)), 0.145 µmol/g; in data set [2] (in PEG 200 (cosurfactant)), 0.093 µmol/g; in data set [2] (in PEG 400 (cosurfactant)), 0.143 µmol/g; in data set [2] (in Transcutol P (cosurfactant)) it was 1.356 µmol/g. Further, the “Bone marrow toxicity and hematotoxicity” value in data set [3] was “neither bone marrow toxicity nor hematotoxicity”.
